Here are results for 5 compounds from ChEMBL document CHEMBL1201862, “PubChem BioAssay data set” (2004).

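Dose response: 5 concentrations. Exposure: 48 h. Format: 96-well plates. Endpoint: linear interpolation; highest concentration if not reached. The concentration for 50% growth inhibition is given as GI50.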 Calls of active or inactive are those of the source. Rule as the data show it: active = GI50 up to about 1.1 µM and inactive = higher. A value given as a limit tells only on which side of the number the result lay.

Some test systems named below: A498; A549; CCRF-CEM; COLO 205; DMS-114; HCT-15; HL-60; Malme-3M; NCI-H23; NCI-H522; NCI/ADR-RES; RXF 393; SF-268; SK-MEL-28; SK-MEL-5; SK-OV-3; SN12C; SR; UO-31; MCF7.
Assay in all cases: NCI-60 cell line screen, 48 h

Regarding `C[N+](C)(C)CC1CCCC1=O` (stereo not drawn), the GI50 is 13.1 µM (inactive) in the assay with A498; 19 µM (inactive) with A549; 0.213 µM (active) in the assay on CCRF-CEM; 1.2 µM (inactive) with COLO 205; 3.24 µM (inactive) with DMS-114; 2.18 µM in the assay with HCT-15. For the same compound, the GI50 in the assay on HL-60 was 0.406 µM (active); in the assay with Malme-3M, 0.789 µM (active); in the assay with NCI-H23 it was 4.45 µM (inactive); in the assay on NCI-H522, < 0.0105 µM (active); in the assay with NCI/ADR-RES it was 1.94 µM (inactive); with RXF 393, 2.27 µM (inactive). Besides, the GI50 was 9.64 µM (inactive) with SF-268; 1.89 µM (inactive) with SK-MEL-28; 5.68 µM (inactive) with SK-MEL-5; 16.5 µM (inactive) with SK-OV-3; 2.64 µM (inactive) in the assay on SN12C; 0.339 µM (active) in the assay on SR. The GI50 with UO-31 is 2.5 µM (inactive).
Take `O=C1OC2C(O)COC2(O)C1(O)C(C[N+](=O)[O-])c1ccc(Cl)cc1` (stereo not drawn): the GI50 in the assay with A498 was 4.8 µM (inactive); in the assay with A549, 16.5 µM (inactive); with CCRF-CEM, 3.45 µM (inactive); in the assay with COLO 205 it was 3.84 µM (inactive); in the assay with DMS-114 it was 2.76 µM (inactive); in the assay on HCT-15 it was 6.84 µM. Moreover, the GI50 is 1.76 µM (inactive) in the assay with HL-60; 1.98 µM (inactive) in the assay with MCF7; 16.3 µM (inactive) in the assay with Malme-3M; 6.95 µM (inactive) in the assay on NCI-H23; 9.27 µM (inactive) with NCI-H522; 21.9 µM (inactive) in the assay on NCI/ADR-RES. In addition, the GI50 is 3.29 µM (inactive) with RXF 393; 9.79 µM (inactive) in the assay on SF-268; 3.52 µM (inactive) in the assay on SK-MEL-28; 8.17 µM (inactive) in the assay on SK-MEL-5; 17.1 µM (inactive) in the assay with SK-OV-3; 13.7 µM (inactive) in the assay with SN12C. For the same compound, the GI50 was 4.26 µM (inactive) with SR and 8.79 µM (inactive) in the assay on UO-31.
`CCOP(=O)(OCC)/C(C#N)=C\c1ccc(OC(C)=O)cc1`: the GI50 in the assay with A498 is > 100 µM (inactive); with A549, > 100 µM (inactive); in the assay with CCRF-CEM, > 100 µM (inactive); with COLO 205, > 100 µM (inactive); in the assay with DMS-114 it was > 100 µM (inactive); with HCT-15, > 100 µM. Moreover, the GI50 is > 100 µM (inactive) in the assay on HL-60; > 100 µM (inactive) with Malme-3M; > 100 µM (inactive) with NCI-H23; > 80.2 µM (inactive) in the assay on NCI-H522; > 100 µM (inactive) with RXF 393; > 66.2 µM (inactive) with SF-268. The GI50 in the assay on SK-MEL-28, in the assay on SK-MEL-5, in the assay with SK-OV-3, with SN12C, with SR and in the assay with UO-31 was > 100 µM (inactive) throughout.
`O=C1O[B-](c2ccccc2)(c2ccccc2)[NH2+]C1CS` (stereo not drawn): the GI50 is 41.8 µM (inactive) in the assay with A498; 92.3 µM (inactive) in the assay with A549; 17.7 µM (inactive) with CCRF-CEM; 33.4 µM (inactive) in the assay on COLO 205; 34.9 µM (inactive) in the assay on DMS-114; 36 µM in the assay with HCT-15. Also, the GI50 in the assay with HL-60 was 23.9 µM (inactive); with Malme-3M, 38.2 µM (inactive); in the assay on NCI-H23, 61.2 µM (inactive); with NCI-H522 it was 43.3 µM (inactive); in the assay with RXF 393 it was 23.3 µM (inactive); in the assay on SF-268, 96.4 µM (inactive). The GI50 was 66.1 µM (inactive) in the assay with SK-MEL-28; 55 µM (inactive) with SK-MEL-5; > 100 µM (inactive) in the assay on SK-OV-3; 80.4 µM (inactive) in the assay with SN12C; 28.8 µM (inactive) in the assay with SR; 52.2 µM (inactive) in the assay with UO-31.
Turning to `CCOC(=O)C1=C(O)C(=O)c2cc(C)ccc2C1=O`, the GI50 with A498 was 21.9 µM (inactive); in the assay on A549, 39.4 µM (inactive); with CCRF-CEM, > 100 µM (inactive); in the assay with COLO 205, 49.8 µM (inactive); in the assay with DMS-114, > 100 µM (inactive); in the assay on HCT-15, 77.8 µM. Also, the GI50 is > 100 µM (inactive) in the assay with HL-60; 65.3 µM (inactive) in the assay with Malme-3M; 27.2 µM (inactive) with NCI-H23; > 100 µM (inactive) with NCI-H522; > 100 µM (inactive) with RXF 393; > 100 µM (inactive) with SF-268. Besides, the GI50 in the assay on SK-MEL-28 was > 100 µM (inactive); in the assay with SK-MEL-5, 31 µM (inactive); in the assay on SK-OV-3, > 100 µM (inactive); in the assay on SN12C it was > 100 µM (inactive); with SR it was > 100 µM (inactive); in the assay on UO-31, > 100 µM (inactive).
